What was measured:
Type in all cases: cell-based, human
[1] = system: pancreatic ductal adenocarcinoma (CFPAC-1) cells; assay: Antiproliferative MTT assay, CFPAC-1; conditions: for IC50: 72 h incubation, MTT, mean ± SD; for SI (CFPAC-1): SI = [IC50 HFF]/[IC50 CFPAC-1]
Description: (§1) The human ATCC tumor cell lines breast adenocarcinoma (MCF7), colorectal carcinoma (HT-29), pancreatic ductal adenocarcinoma (CFPAC-1), hepatocellular carcinoma (HepG2), and normal skin fibroblasts (HFF) derived from ATCC (American Type Culture Collection) were cultured in Dulbecco’s Modified Eagle Medium (DMEM) or Minimum Essential Medium (MEM) supplemented with 10% fetal bovine serum (FBS), 2 mM L-glutamine, 100 U/mL penicillin, and 100 µg/mL streptomycin (Lonza, Basel, Switzerland) in a humidified atmosphere with 5% CO2 at 37 °C. For the experiment, carcinoma cell lines and normal human cell lines were seeded in 96-well microtiter plates at a density of 3000 cells per well and 5000 cells per well, respectively, depending on the doubling time of the specific cell line. The test substances were then added at fivefold, tenfold dilutions (0.01 to 100 µM), freshly prepared in the growth medium on the day of testing, and incubated for a further 72 h. After 72 h of incubation, the growth rate of the cells was determined using the MTT assay according to the manufacturer’s guidelines. […] The IC50 values were calculated from the dose–response curves using linear regression analysis. The experiment was performed in tetraplicates in two individual experiments.
(§2) Newly synthesized compounds were evaluated for their cytotoxic activity in vitro against four human cancer cell lines, including human breast adenocarcinoma (MCF-7), ductal pancreatic adenocarcinoma (CFPAC-1), colorectal carcinoma (HT-29), and hepatocellular carcinoma (HepG2), as well as on non-cancerous skin fibroblasts (HFF-1), to check for non-specific toxicity. Furthermore, 5-Fluorouracil (5-FU) was used as a reference drug. The results are expressed as 50% inhibitory concentration (IC50) values and are listed in Table 2, Table 3, Table 4 and Table 5.

[2] = system: colorectal carcinoma (HT-29) cells; assay: Antiproliferative MTT assay, HT-29; conditions: for IC50: 72 h incubation, MTT, mean ± SD; for SI (HT-29): SI = [IC50 HFF]/[IC50 HT-29]
Description: as §1, §2

[3] = system: breast adenocarcinoma (MCF7) cells; assay: Antiproliferative MTT assay, MCF-7; conditions: for IC50: Homo sapiens, MCF7, 72 h incubation, MTT, mean ± SD
Description: as §1, §2

[4] = system: hepatocellular carcinoma (HepG2) cells; assay: Antiproliferative MTT assay, HepG2; conditions: for IC50: Homo sapiens, HepG2, 72 h, 72 h incubation, MTT, mean ± SD; for SI (HepG2): SI = [IC50 HFF]/[IC50 HepG2]
Description: as §1, §2

[5] = system: normal skin fibroblasts (HFF-1); assay: Cytotoxicity MTT assay, normal skin fibroblasts; conditions: 72 h incubation, mean ± SD
Description: as §1, §2

Structure (SMILES) | IC50 [1] [µM] | IC50 ([1]; Homo sapiens, CFPAC-1, 72 h) [µM] | IC50 [2] [µM] | IC50 ([2]; Homo sapiens, HT-29, 72 h) [µM] | IC50 [3] [µM] | IC50 [4] [µM] | SI (HT-29) [2] | SI (MCF-7) ([3]; SI = [IC50 HFF]/[IC50 MCF-7]) | SI (HepG2) [4] | IC50 [5] [µM] | IC50 ([5]; Homo sapiens, HFF-1, 72 h) [µM] | SI (CFPAC-1) [1]
OCC(c1ccc(F)cc1)n1cc(Cn2ccc3ccccc32)nn1 (stereo not shown) [Compound 27a, 1-((1-(2-Hydroxy-1-(4-fluorophenyl)ethyl)-1H-1,2,3-triazol-4-yl)methyl)-1H-indole] | – | 68 ± 12.7 | – | 47 ± 16.9 | 51 ± 6.7 | 49 ± 2.5 | – | – | – | – | 42 ± 10.5 | 0.6
OC(Cn1cc(Cn2ccc3ccccc32)nn1)c1ccc(F)cc1 (stereo not shown) [Compound 27b, 1-((1-(2-Hydroxy-2-(4-fluorophenyl)ethyl)-1H-1,2,3-triazol-4-yl)methyl)-1H-indole] | – | > 100 | – | > 100 | > 100 | > 100 | – | – | – | – | > 100 | –
OCC(c1ccc(F)cc1)n1cc(Cn2cnc3ccccc32)nn1 (stereo not shown) [Compound 32a, 1-((1-(2-Hydroxy-1-(4-fluorophenyl)ethyl)-1H-1,2,3-triazol-4-yl)methyl)-1H-benzimidazole] | – | > 100 | – | > 100 | 98 ± 2.8 | 74 ± 0.6 | – | – | – | – | > 100 | –
OC(Cn1cc(Cn2cnc3ccccc32)nn1)c1ccc(F)cc1 (stereo not shown) [Compound 32b, 1-((1-(2-Hydroxy-2-(4-fluorphenyl)ethyl)-1H-1,2,3-triazol-4-yl)methyl)-1H-benzimidazole] | – | > 100 | – | > 100 | > 100 | > 100 | – | – | – | – | > 100 | –
OC(Cn1cc(Cn2cnc3ccccc32)nn1)c1ccc(Cl)cc1 (stereo not shown) [Compound 33b, 1-((1-(2-Hydroxy-2-(4-chlorophenyl)ethyl)-1H-1,2,3-triazol-4-yl)methyl)-1H-benzimidazole] | – | 69 ± 12.1 | – | > 100 | 70 ± 20.5 | > 100 | – | – | – | – | 64 ± 6.17 | 0.9
OCC(c1ccccc1)n1cc(Cn2cnc3c(Cl)ncnc32)nn1 (stereo not shown) [Compound 36a, 6-Chloro-9-((1-(2-hydroxy-1-phenylethyl)-1H-1,2,3-triazol-4-yl)methyl)-9H-purine] | – | 60 ± 0.9 | – | 54 ± 7.4 | 53 ± 5.5 | 55 ± 2.4 | >1.9 | – | >1.8 | – | > 100 | –
OC(Cn1cc(Cn2cnc3c(Cl)ncnc32)nn1)c1ccccc1 (stereo not shown) [Compound 36b, 6-Chloro-9-((1-(2-hydroxy-2-phenylethyl)-1H-1,2,3-triazol-4-yl)methyl)-9H-purine] | – | 65 ± 18.9 | – | 61 ± 2.4 | 69 ± 10.6 | 41 ± 10.6 | 1.3 | – | 1.9 | – | 80 ± 14 | –
OC(Cn1cc(Cn2cnc3c(Cl)ncnc32)nn1)c1ccc(F)cc1 (stereo not shown) [Compound 37b, 6-Chloro-9-((1-(2-hydroxy-2-(4-fluorophenyl)ethyl)-1H-1,2,3-triazol-4-yl)methyl)-9H-purine] | – | 56 ± 5.5 | – | 46 ± 9.9 | 49 ± 9.9 | 54 ± 6 | 1.3 | – | 1.1 | – | 59 ± 9.2 | –

Compounds with a lower IC50 ([1]; Homo sapiens, CFPAC-1, 72 h), results first:

IC50 [1] [µM] | IC50 ([1]; Homo sapiens, CFPAC-1, 72 h) [µM] | IC50 [2] [µM] | IC50 ([2]; Homo sapiens, HT-29, 72 h) [µM] | IC50 [3] [µM] | IC50 [4] [µM] | Structure (SMILES) | SI (HT-29) [2] | SI (MCF-7) ([3]; SI = [IC50 HFF]/[IC50 MCF-7]) | SI (HepG2) [4] | IC50 [5] [µM] | IC50 ([5]; Homo sapiens, HFF-1, 72 h) [µM] | SI (CFPAC-1) [1]
– | 50 ± 12.4 | – | 41 ± 2.3 | 38 ± 15.7 | 37 ± 12.9 | OCC(c1ccc(F)cc1)n1cc(Cn2cnc3c(Cl)ncnc32)nn1 (stereo not shown) [Compound 37a, 6-Chloro-9-((1-(2-hydroxy-1-(4-fluorophenyl)ethyl)-1H-1,2,3-triazol-4-yl)methyl)-9H-purine] | 1.6 | – | 1.7 | – | 64 ± 6.3 | –
– | 48 ± 4.9 | – | 33 ± 6.06 | 24 ± 8.8 | 34 ± 4.2 | OCC(c1ccc(Cl)cc1)n1cc(Cn2cnc3c(Cl)ncnc32)nn1 (stereo not shown) [Compound 38a, 6-Chloro-9-((1-(2-hydroxy-1-(4-chlorophenyl)ethyl)-1H-1,2,3-triazol-4-yl)methyl)-9H-purine] | 1.2 | – | 1.2 | – | 41 ± 16.3 | –
– | 36 ± 1.3 | – | 67 ± 2.9 | 31 ± 13.7 | 67 ± 3.5 | OC(Cn1cc(Cn2cnc3ccccc32)nn1)c1ccc(C(F)(F)F)cc1 (stereo not shown) [Compound 35b, 1-((1-(2-Hydroxy-2-(4-(trifluoromethyl)phenyl)ethyl)-1H-1,2,3-triazol-4-yl)methyl)-1H-benzimidazole] | – | – | – | – | 22 ± 18.1 | 0.6
– | 35 ± 19.8 | – | 46 ± 18.4 | 35 ± 16.2 | 66 ± 2.7 | OC(Cn1cc(Cn2ccc3ccccc32)nn1)c1ccc(Cl)cc1 (stereo not shown) [Compound 28b, 1-((1-(2-Hydroxy-2-(4-chlorophenyl)ethyl)-1H-1,2,3-triazol-4-yl)methyl)-1H-indol] | – | – | – | – | > 100 | >2.9
– | 34 ± 2.3 | – | 63 ± 9.8 | 40 ± 1.8 | 50 ± 12.8 | OCC(c1ccc(Cl)cc1)n1cc(Cn2cnc3ccccc32)nn1 (stereo not shown) [Compound 33a, 1-((1-(2-Hydroxy-1-(4-chlorophenyl)ethyl)-1H-1,2,3-triazol-4-yl)methyl)-1H-benzimidazole] | – | – | – | – | > 100 | >2.9
– | 30 ± 0.6 | – | 31 ± 0.9 | 32 | 32 ± 0.2 | OCC(c1ccc(Cl)cc1)n1cc(Cn2ccc3ccccc32)nn1 (stereo not shown) [Compound 28a, 1-((1-(2-Hydroxy-1-(4-chlorophenyl)ethyl)-1H-1,2,3-triazol-4-yl)methyl)-1H-indole] | – | – | – | – | 42 ± 4.6 | 1.4
– | 27 ± 0.7 | – | 51 ± 15.3 | 22 ± 3.4 | 65 ± 2.4 | OC(Cn1cc(Cn2ccc3ccccc32)nn1)c1ccc(C(F)(F)F)cc1 (stereo not shown) [Compound 30b, 1-((1-(2-Hydroxy-2-(4-(trifluoromethyl)phenyl)ethyl)-1H-1,2,3-triazol-4-yl)methyl)-1H-indol] | – | – | – | – | 18 ± 0.6 | 0.7
– | 27 ± 0.7 | – | 61 ± 0.7 | 30 ± 0.9 | 59 ± 4.6 | OCC(c1ccc(C(F)(F)F)cc1)n1cc(Cn2cnc3ccccc32)nn1 (stereo not shown) [Compound 35a, 1-((1-(2-Hydroxy-1-(4-(trifluoromethyl)phenyl)ethyl)-1H-1,2,3-triazol-4-yl)methyl)-1H-benzimidazole] | – | – | – | – | > 100 | >3.7
– | 9 ± 3.3 | – | 28 ± 1.9 | 21 ± 1.6 | 32 ± 3.6 | OCC(c1ccc(C(F)(F)F)cc1)n1cc(Cn2ccc3ccccc32)nn1 (stereo not shown) [Compound 30a, 1-((1-(2-Hydroxy-1-(4-(trifluoromethyl)phenyl)ethyl)-1H-1,2,3-triazol-4-yl)methyl)-1H-indole] | – | – | – | – | 34 ± 1.6 | 3.7
0.1 ± 0.1 | 0.14 ± 0.1 | 0.2 | 0.23 | 1 ± 0.8 | 9 ± 1.3 | O=c1[nH]cc(F)c(=O)[nH]1 [Compound 5-FU, 5-Fluorouracil, reference compound] | 4.5 | 0.9 | 0.1 | 0.9 | 0.94 | –

Source: publication PMC11940194, “Synthesis, Antiproliferative Activity, and ADME Profiling of Novel Racemic and Optically Pure Aryl-Substituted Purines and Purine Bioisosteres” (Biomolecules, 2025)
